Measured values published in US11000710B2, “Composition and method for the generation of chlorine dioxide from the oxidative consumption of biomolecules” (priority 2009, dated 2021).

Assay: Level of HClO2 and ClO2^• producible from ClO2^− as a function of pH
Format: physicochemical

| Structure (SMILES) | level of HClO2 generated, of total available oxyhalogen oxidant (pH 4.50) [%] | level of HClO2 generated, of total available oxyhalogen oxidant (pH 7.00) [%] | total ClO2^• producible, maximum percentage of total oxyhalogen oxidant (pH 4.50) [%] | total ClO2^• producible, maximum percentage of total oxyhalogen oxidant (pH 7.00) [%] |
| --- | --- | --- | --- | --- |
| [O-][Cl+]O [HClO2] | 0.64 | 0.0020 | – | – |
| [O][Cl+][O-] [ClO2^•, chlorine dioxide] | – | – | ≤ 0.32 | ≤ 0.0010 |
